Data on ten molecules can be found in patent US20240316038A1, “APOL1 INHIBITORS AND METHODS OF USE” (Maze Therapeutics, Inc., priority 2021, published 2024).

Assay [1] concerns the target T1, APOL1 G2 (Homo sapiens, UniProt O14791, DEL388-389).
T1 construct: expressed in transfected cells; host or cells: HEK293 T-REx clonal lines: HEK T-REx/GCaMP6f/APOL1 G2 K6.3 in A1, HEK293/T-REx APOL1 G2/clone #2 in A2
T1 sequence (O14791 with tags, fused parts or gaps DEL388-389): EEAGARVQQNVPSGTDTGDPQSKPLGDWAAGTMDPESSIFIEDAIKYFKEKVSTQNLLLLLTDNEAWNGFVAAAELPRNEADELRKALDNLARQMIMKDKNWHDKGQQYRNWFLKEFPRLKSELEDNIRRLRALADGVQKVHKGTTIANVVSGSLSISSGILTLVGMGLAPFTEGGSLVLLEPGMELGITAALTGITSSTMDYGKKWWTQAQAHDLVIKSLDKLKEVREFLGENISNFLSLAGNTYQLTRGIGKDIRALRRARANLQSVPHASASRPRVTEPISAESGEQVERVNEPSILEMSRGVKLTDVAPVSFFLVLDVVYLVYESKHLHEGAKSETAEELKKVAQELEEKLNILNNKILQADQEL
Put plainly: Rescue of HEK293 cell death caused by overexpression of APOL1 (CellTiter-Glo luminescence), HEK293/T-REx APOL1 G2/clone #2. The format is cell-based. The note with it: reversal of cell death caused by overexpression of APOL1; geometric mean of at least 2 assay runs, † = single assay run (technical duplicate). How it is done:
A HEK293 clonal cell line overexpressing APOL1 G2 (HEK293/T-REx APOL1 G2/clone #2) was maintained in 1×DMEM-GlutaMax (Gibco, 10569-010) media with 10% tetracycline-free FBS (Takara Bio USA, 631101), 5 μg/mL Blasticidin (Gibco, A1113903), and 100 μg/mL Zeocin (Invitrogen, R25001) in T75 flasks. In preparation for the assay, this media was aspirated and 2 mL of prewarmed TrypLE Express (Gibco, 12605-010) was added to a flask to detach cells. The flask was then incubated (humidified, 37° C. with 5% CO2) for 3-5 minutes. Afterwards, 8 mL of prewarmed cell assay media (lx DMEM-GlutaMax media with 10% tetracycline-free FBS) was added to the trypsinized cells. The suspension was gently mixed, and cells were counted using a Countess Cell Counting Chamber (Invitrogen). The suspension was diluted using cell assay media to generate a working stock solution (166,667 cells/mL). Using a MultiDrop Combi (Thermo Electron Corp), 30 μL (final cell density=5,000 cells/well) of the working stock solution was dispensed into each well of white 384-well assay ready plates (Nunc™, 164610) containing 6 ng/mL doxycycline, to induce APOL1 expression, and compound. All compounds were plated in a duplicate 8-point dilution series that consisted of 3-fold stepwise dilutions (0.5% DMSO final). Assay plates were incubated (humidified, 37° C. with 5% CO2) for 17 hours. After the incubation, the plates were equilibrated at room temperature for 1 hour. Next, 15 μl of CellTiter-Glo® reagent (Promega, G7570) was added to each well using a MultiDrop Combi. Plates were placed on an orbital shaker (500 rpm) for 5 minutes to induce cell lysis and then incubated at room temperature for 10 minutes. Luminescence was measured on an Envision plate reader. Collaborative Drug Discovery software was utilized for graphing data. Plots were generated using a four parameter logistic curve fit.
Table B2 below provides the results from this experiment. Unless otherwise specified, EC50 values are reported as the geometric mean of at least 2 assay runs on separate days. Each run represents the average of a technical replicate, where each compound was assayed twice in the same plate. A superscript t symbol indicates a value from the average of a technical replicate from a single assay run, where each compound was assayed twice in the same plate. Compounds in Table B2 are referred to by the corresponding Compound Number in Table 1, which is also referred to in the synthetic examples. When one or more of the numbered compounds are identified by stereochemistry (for example, (R)- or (S)—), the specific stereoisomer for which data is provided in Table B2 may be identified by the elution order of such compound as described in the synthetic examples. To illustrate, Compound 2 is the first-eluting enantiomer of step 4 of Example 1 and Compound 3 is the second-eluting enantiomer of step 4 of Example 1. Further, by way of illustration, Compound 27 is the first-eluting enantiomeric mixture in step 4 of Example 7 and Compound 28 is the second-eluting enantiomeric mixture in step 4 of Example 7. Then, Compound 27 is separated into Compound 29 (the first-eluting enantiomer) and Compound 30 (the second-eluting enantiomer) in Example 8, and Compound 28 is separated into Compound 31 (the first-eluting enantiomer) and Compound 32 (the second-eluting enantiomer) in Example 8. Absolute stereochemistry of such compounds may be identified by methods known in the art.
Rescue EC50 values reported in Table B2 below represent the half-maximal effective concentration for reversal of cell death caused by overexpression of APOL1.
(In general: ATP-based viability assays read luminescence as a measure of living cells.)

Assay [2] has as its target T1, APOL1 G2. Put plainly: APOL1 calcium transport inhibition assay (GCaMP6f calcium influx, FLIPR) in HEK T-REx/GCaMP6f/APOL1 G2 K6.3 cells. In kind it is cell-based. The note with it: inhibition of APOL1-mediated calcium influx; geometric mean of at least 2 assay runs, † = single assay run (technical duplicate). How it is done:
A HEK293 clonal cell line was generated to stably express GCaMP6f, a genetically encoded calcium indicator, and inducibly express APOL1 G2 (HEK T-REx/GCaMP6f/APOL1 G2 K6.3). Cells were maintained in the following standard complete medium: DMEM with 4.5 g/L glucose and sodium pyruvate (BioWhittaker, Lonza, BE12-614F), supplemented with 10% FBS Performance Plus (Gibco, 16000044), 1% penicillin-streptomycin (BioWhittaker, DE17-602E), 2 mM ultraglutamine-1 (BioWhittaker cat. BE 17-605/U1), 50 μg/mL Zeocin (InvivoGen, ant-zn), 2.5 μg/mL Blasticidin (InvivoGen, ant-bl-5), and 25 μg/mL Hygromycin (InvivoGen, ant-hg). Standard propagation conditions consisted of plating 9×10^6, 4×10^6, 2×10^6 cells in a T225 flasks to be processed after 2, 3, or 4 days, respectively.
A source plate was generated containing 20 serially diluted compounds in DMSO (duplicate 8-point dose response). Next, 0.8 μL of compounds were transferred from the source plate to a destination plate prefilled with 79.2 μL of Ca^2+ free Tyrode's buffer (130 mM NaCl, 5 mM KCl, 1 mM MgCl2, 5 mM NaHCO3, 20 mM HEPES at pH 7.4). The destination plate was placed on a plate shaker (5 seconds at 2000 rpm) to mix. […] All transfer and mixing steps were conducted with an CyBi®-Well dispenser.
Cells were split by gently washing with DPBS (Euroclone, ECB4004L), followed by a 5-minute incubation (humidified, 37° C. with 5% CO2) with trypsin-EDTA solution (Euroclone, ECB3052D). Detached cells were diluted with standard complete medium without selective agents, counted, and plated in a 384 MTP microplate (GR4332CPL, Twin Helix) (10,000 cells/well in 25 μl/well) using a MATRIX WellMate dispenser. Plates were placed into a humidified incubator (37° C. with 5% CO2) overnight. The following day, 20 μL of doxycycline (Sigma, D9891) at 20 ng/mL in standard complete medium was added to cells with a CyBi @Drop dispenser to induce APOL1 G2 expression. After a 6-hour incubation (humidified, 37° C. with 5% CO2), cells were washed 3 times with Ca^2+ free Tyrode's Buffer (130 mM NaCl, 5 mM KCl, 1 mM MgCl2, 5 mM NaHCO3, 20 mM HEPES at pH 7.4) using a BIOTEK Microplate washer, such that 10 μL of buffer remained in each well after the final wash. Assay plates were then stored at room temperature for 10 minutes. Next, 10 μL of diluted compounds were transferred to the assay plate from the 2× compound plate using a CyBi®-Well dispenser. Compound incubation was then carried out at room temperature for 10 minutes. The assay plate was transferred to the […] and 20 μL of 10 mM Ca^2+ (final concentration=5 mM) Tyrode's buffer was injected.
Table B1 below summarizes the data from this experiment. Unless otherwise specified, AC50 and values are reported as the geometric mean of at least 2 assay runs on separate days. Each run represents the average of a technical replicate, where each compound was assayed twice in the same plate. A superscript † symbol indicates a value from the average of a technical replicate from a single assay run, where each compound was assayed twice in the same plate.
The AC50 values in Table B1 below reflect the compound's ability to prevent calcium influx by inhibiting APOL1. […] Compounds in Table B1 are referred to by the corresponding Compound Number in Table 1, which is also referred to in the synthetic examples. When one or more of the numbered compounds are identified by stereochemistry (for example, (R)- or (S)—), the specific stereoisomer for which data is provided in Table B1 may be identified by the elution order of such compound as described in the synthetic examples. To illustrate, Compound 2 is the first-eluting enantiomer of step 4 of Example 1 and Compound 3 is the second-eluting enantiomer of step 4 of Example 1. Further, by way of illustration, Compound 27 is the first-eluting enantiomeric mixture in step 4 of Example 7 and Compound 28 is the second-eluting enantiomeric mixture in step 4 of Example 7. […]

Broadly, the EC50 is the concentration that produces a half-maximal response. For orientation: AC50 means the concentration at which the activity in the assay is half-maximal.

Consider `COC(CN1CCC[C@@H](COc2ccc(S(C)(=O)=O)cc2)C1)c1cccc(Cl)c1` (single isomer, unassigned) [Compound 25, (R)-1-((R)-2-(3-chlorophenyl)-2-methoxyethyl)-3-((4-(methylsulfonyl)phenoxy)methyl)piperidine or (R)-1-((S)-2-(3-chlorophenyl)-2-methoxyethyl)-3-((4-(methylsulfonyl)phenoxy)methyl)piperidine], for which, on APOL1 G2 [1], the concentration for a half-maximal effect (EC50) stood at 1010 nM. Moreover, the AC50 on APOL1 G2 [2] was 469 nM.
Taken in the same sequence, the figures for `CN(c1ccc(OC[C@H](O)CN2CCC(c3cccc(Cl)c3)C2)cc1)S(C)(=O)=O` (single isomer, unassigned) [Compound 78, N-(4-((R)-3-((S) or (R)-3-(3-chlorophenyl)pyrro-lidin-1-yl)-2-hydroxypropoxy)phe-nyl)-N-methylmethanesulfon-amide] were > 30000 nM and 7010 nM.
For `C[C@@H]1CN(CCc2cccc(Cl)c2)C[C@@H]1COc1ccc(S(C)(=O)=O)cc1` (single isomer, unassigned) [Compound 151, (3R,4S or 3S, 4R)-1-[2-(3-chlorophenyl)-ethyl]-3-[(4-methanesulfon-ylphenoxy)meth-yl]-4-methyl-pyrrolidine], the concentration for a half-maximal effect (EC50) on APOL1 G2 [1] amounted to 1340 nM. Further, the AC50 at APOL1 G2 [2] was found to be 310 nM.
In the case of `COC1CCN(CCc2cccc(Cl)c2)CC1COc1ccc(S(C)(=O)=O)cc1` (single isomer, unassigned) [Compound 37, (3R,4R) or (3S,4S) or (3R,4S) or (3S,4R)-1-(3-chlorophenethyl)-4-methoxy-3-((4-(methylsulfonyl)phenoxy)methyl) piperidine], on APOL1 G2 [1], the EC50 was > 6150 nM. The AC50 at APOL1 G2 [2] amounted to 3840 nM.
Regarding `COC1CCN(CCc2cccc(Cl)c2)CC1COc1ccc(S(C)(=O)=O)cc1` (single isomer, unassigned) [Compound 33, rac-trans or cis-1-(3-chlorophenethyl)-4-methoxy-3-((4-(methylsulfonyl)phenoxy)methyl)piperidine], at APOL1 G2 [1], the concentration for a half-maximal effect (EC50) is > 8670 nM. Besides, the half-maximal activity concentration (AC50) at APOL1 G2 [2] was determined as 10800 nM.
As for `CN(c1ccc(OC[C@@H](O)CN2CCC(c3cccc(Cl)c3)C2(C)C)cc1)S(C)(=O)=O` (stereo partly drawn) [Compound 68, N-(4-((2S)-3-(3-(3-chlorophenyl)-2,2-dimethylpyrrolidin-1-yl)-2-hydroxypropoxy)phe-nyl)-N-methylmethanesulfon-amide], the concentration giving a half-maximal response (EC50) at APOL1 G2 [1] is 591 nM. In addition, at APOL1 G2 [2], the concentration at half-maximal activity (AC50) is 916 nM.
On to `C[C@H]1CN(CCc2cccc(Cl)c2)C[C@@H]1COc1ccc(S(C)(=O)=O)cc1` (single isomer, unassigned) [Compound 154, (3R,4R or 3S, 4S)-1-[2-(3-chlorophenyl)-ethyl]-3-[(4-methanesulfon-ylphenoxy)meth-yl]-4-methyl-pyrrolidine], for which the EC50 on APOL1 G2 [1] amounted to 167 nM. Further, on APOL1 G2 [2], the AC50 stood at 98 nM.
Turning to `COC1CCN(CCc2cccc(Cl)c2)CC1COc1ccc(S(C)(=O)=O)cc1` (single isomer, unassigned) [Compound 36, (3R,4R) or (3S,4S) or (3R,4S) or (3S,4R)-1-(3-chlorophenethyl)-4-methoxy-3-((4-(methylsulfonyl)phenoxy)methyl)piperidine], the EC50 on APOL1 G2 [1] is > 30000 nM. In addition, the AC50 at APOL1 G2 [2] was determined as 14200 nM.
The like results for `CS(=O)(=O)c1ccc(OCC2CN(CCc3cccc(Cl)c3)CCC2O)cc1` (single isomer, unassigned) [Compound 32, (3S,4S) or (3R,4S) or (3S,4R) or (3R,4R)-1-(3-chlorophen-ethyl)-3-((4-(methylsulf-onyl)phenoxy)methyl) piperidin-4-ol] were, in that order, 5770 nM and 731 nM.
Taken in the same sequence, the figures for `CN(c1ccc(OC[C@H]2CCN(CCc3cccc(Cl)c3)C2)cc1)S(C)(=O)=O` [Compound 49, (S)-N-(4-((1-(3-chlorophenethyl)pyrrolidin-3-yl)methoxy)phenyl)-N-methylmethanesulfonamide] were 957 nM and 847 nM.
